Source: patent publication US20060211748A1, “Sulphydryl compounds in combination with sulpha compounds” (priority 2002, published 2006)

Key:
[1] = treatment of opportunistic infections associated with AIDS; cited from earlier work
[2] = system: ^51Cr-labelled erythrocytes; assay: Half-life of 51Cr-labelled erythrocytes challenged in vitro with DDS N-hydroxylamine and re-introduced to autologous rats; type: in vivo; settings: red cells incubated two hours with DDS N-hydroxylamine 0.05 to 0.5 millimolar with N-acetyl-L-cysteine 2 to 10 millimolar, reintroduced into autologous rat
Method: Blood is drawn from laboratory rats into heparinized tubes, washed using conventional methods, and resuspended in buffered saline solution. Red blood cells are labeled with ^51Cr as chromate using the CPD standard method known to those skilled in the art. After resuspension in isotonic saline, DDS N-hydroxylamine alone (control) or with N-acetyl-L-cysteine (treatment) are added at final concentrations of 0.05 to 0.5 millimolar and 2 millimolar to 10 millimolar, respectively, and incubated for two hours. A 0.5 milliliter sample of the washed and resuspended red blood cells is then reintroduced into the autologous animal. Half-life of the labeled erythrocytes is determined by blood sampling every two days and counting of radioactive decay in the sample using a gamma counter.

Nc1ccc(S(=O)(=O)c2ccc(N)cc2)cc1 [DDS, 4,4′-diaminodiphenylsulphone]
Discontinuation of clinical use due to toxicity [1]: about 25 % of patients

CC(=O)N[C@@H](CS)C(=O)O [N-acetyl-L-cysteine]
Half-life of ^51Cr-labelled erythrocytes [2]: able to preserve the normal half-life
